Source: ChEMBL document CHEMBL4138254 (ACS Med Chem Lett, 2017)
pIC50: −log10 of the molar value. In brackets after ≈: the same amount, converted by molar mass. One block for each compound: values may come before it.

Key:
in vitro [1] = details: rat, liver microsomes
Description: Clearance in rat liver microsomes at 1 uM in presence of NADPH by LC-MS/MS analysis relative to hepatic blood flow

in vitro [2] = details: human, liver microsomes
Description: Clearance in human liver microsomes at 1 uM in presence of NADPH by LC-MS/MS analysis relative to hepatic blood flow

physchem [3] = details: pH 6.8 buffer solution
Description: Aqueous solubility of the compound in pH 6.8 buffer solution after 24 hrs by LC-UV analysis

in vitro [4] = details: human, Caco-2
Description: Apparent permeability across apical to basolateral side in human Caco2 cells at 10 uM measured up to 90 mins

Autotaxin [5] = biological target: T1, Autotaxin (Rattus norvegicus, UniProt Q64610); test: Inhibition of recombinant rat ATX using LPC 18:1 as substrate after 2 hrs by rapidfire/MS-based analysis
physchem [6] = details: pH 4.5 buffer solution
Description: Aqueous solubility of the compound in pH 4.5 buffer solution after 24 hrs by LC-UV analysis

Autotaxin [7] = biological target: T1, Autotaxin; test: Inhibition of ATX in rat whole blood using LPA 17:0 as substrate after 1 hr by LC-MS/MS analysis
physchem [8] = details: pH 2.2 buffer solution
Description: Aqueous solubility of the compound in pH 2.2 buffer solution after 24 hrs by LC-UV analysis

[9] = biological target: Voltage-gated inwardly rectifying potassium channel KCNH2 (Homo sapiens, UniProt Q12809)
Description: Inhibition of human ERG expressed in HEK293 cells by patch clamp assay

Rattus norvegicus [10] = test: In vivo inhibition of ATX in Han Wistar rat assessed as decrease in plasma LPA 20:4 species level measured up to 24 hrs by LC-MS/MS analysis relative to control; assay type: functional
L-type calcium channel = L-type calcium channel (Homo sapiens, UniProt O60840+Q01668+Q13698+Q13936); test: Inhibition of L-type calcium channel (unknown origin) at 10 uM relative to control; assay type: protein assay
[11] = Half life in Han Wistar rat at 10 mg/kg, po; assay type: ADME, organism-based; details: in vivo
[12] = Half life in Han Wistar rat at 1 mg/kg, iv; assay type: ADME, organism-based; details: in vivo
[13] = biological target: 5-hydroxytryptamine receptor 2A (Homo sapiens) (UniProt P28223); test: Inhibition of recombinant human 5-HT2A receptor at 10 uM after 60 mins by scintillation counting analysis relative to control
[14] = Protein binding in rat plasma; assay type: ADME, cell-free; details: read-out: PPB
Rattus norvegicus [15] = test: Dose normalized AUC in Han Wistar rat at 1 mg/kg, iv; assay type: ADME, organism-based; details: in vivo
[16] = Tmax in Han Wistar rat at 10 mg/kg, po; assay type: ADME, organism-based; details: in vivo
[17] = Volume of distribution at steady state in Han Wistar rat at 1 mg/kg, iv; assay type: ADME, organism-based; details: in vivo, read-out: Vdss
Rattus norvegicus [18] = test: In vivo inhibition of ATX in Han Wistar rat assessed as decrease in plasma LPA 18:0 species level measured up to 24 hrs by LC-MS/MS analysis relative to control; assay type: functional
Rattus norvegicus [19] = test: In vivo inhibition of ATX in Han Wistar rat assessed as decrease in plasma LPA species level measured up to 24 hrs by LC-MS/MS analysis; assay type: functional, organism-based
[20] = Oral bioavailability in Han Wistar rat at 10 mg/kg; assay type: ADME, organism-based; details: in vivo
Rattus norvegicus [21] = test: In vivo inhibition of ATX in Han Wistar rat assessed as decrease in plasma LPA 18:1 species level measured up to 24 hrs by LC-MS/MS analysis relative to control; assay type: functional
[22] = Protein binding in human plasma; assay type: ADME, cell-free; details: read-out: PPB
Rattus norvegicus [23] = test: Dose normalized AUC in Han Wistar rat at 10 mg/kg, po; assay type: ADME, organism-based; details: in vivo
Rattus norvegicus [24] = test: In vivo inhibition of ATX in Han Wistar rat assessed as decrease in plasma LPA 16:0 species level measured up to 24 hrs by LC-MS/MS analysis relative to control; assay type: functional
[25] = biological target: Sodium-dependent noradrenaline transporter (Homo sapiens) (UniProt P23975); test: Inhibition of norepinephrine transporter (unknown origin) at 10 uM relative to control
Homo sapiens = species: Homo sapiens; test: Inhibition of sodium channel site 2 (unknown origin) at 10 uM relative to control
Rattus norvegicus [26] = test: In vivo inhibition of ATX in Han Wistar rat assessed as decrease in plasma LPA 18:2 species level measured up to 24 hrs by LC-MS/MS analysis relative to control; assay type: functional
Rattus norvegicus [27] = test: Dose normalized Cmax in Han Wistar rat at 10 mg/kg, po; assay type: ADME, organism-based; details: in vivo
Rattus norvegicus [28] = test: Clearance in Han Wistar rat at 1 mg/kg, iv relative to hepatic blood flow; assay type: ADME, organism-based; details: in vivo

Voltage-gated inwardly rectifying potassium channel KCNH2, sequence (Q12809 whole entry): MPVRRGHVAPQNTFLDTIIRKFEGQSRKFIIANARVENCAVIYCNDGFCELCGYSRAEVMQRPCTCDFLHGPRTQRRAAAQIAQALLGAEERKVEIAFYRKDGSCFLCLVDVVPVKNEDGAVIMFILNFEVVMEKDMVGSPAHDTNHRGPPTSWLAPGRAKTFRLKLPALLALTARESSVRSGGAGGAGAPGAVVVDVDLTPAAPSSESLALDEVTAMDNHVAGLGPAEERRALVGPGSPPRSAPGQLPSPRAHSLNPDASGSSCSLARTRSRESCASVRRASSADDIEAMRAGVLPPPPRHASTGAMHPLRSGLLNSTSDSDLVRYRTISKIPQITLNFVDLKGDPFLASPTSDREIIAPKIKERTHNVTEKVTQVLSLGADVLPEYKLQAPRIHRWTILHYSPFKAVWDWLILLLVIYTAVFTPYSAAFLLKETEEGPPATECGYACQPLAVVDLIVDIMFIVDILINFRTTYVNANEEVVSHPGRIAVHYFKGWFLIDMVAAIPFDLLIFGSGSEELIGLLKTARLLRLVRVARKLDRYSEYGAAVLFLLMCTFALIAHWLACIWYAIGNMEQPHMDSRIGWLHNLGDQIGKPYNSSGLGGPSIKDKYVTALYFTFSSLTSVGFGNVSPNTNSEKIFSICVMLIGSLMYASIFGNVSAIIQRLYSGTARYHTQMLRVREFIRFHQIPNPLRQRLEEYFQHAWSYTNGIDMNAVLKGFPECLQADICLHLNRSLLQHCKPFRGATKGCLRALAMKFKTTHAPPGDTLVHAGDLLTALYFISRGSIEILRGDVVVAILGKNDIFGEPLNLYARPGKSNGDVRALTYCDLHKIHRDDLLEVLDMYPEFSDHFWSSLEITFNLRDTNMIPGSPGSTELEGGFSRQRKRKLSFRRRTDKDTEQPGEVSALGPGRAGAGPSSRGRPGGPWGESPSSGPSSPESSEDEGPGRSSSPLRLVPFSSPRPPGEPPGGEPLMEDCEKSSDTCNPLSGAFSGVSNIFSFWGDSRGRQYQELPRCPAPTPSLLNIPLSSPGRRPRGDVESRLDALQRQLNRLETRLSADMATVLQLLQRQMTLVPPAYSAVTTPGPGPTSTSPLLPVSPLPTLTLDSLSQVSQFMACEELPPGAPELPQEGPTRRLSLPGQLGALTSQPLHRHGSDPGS
Sodium-dependent noradrenaline transporter (Homo sapiens), sequence (P23975 whole entry): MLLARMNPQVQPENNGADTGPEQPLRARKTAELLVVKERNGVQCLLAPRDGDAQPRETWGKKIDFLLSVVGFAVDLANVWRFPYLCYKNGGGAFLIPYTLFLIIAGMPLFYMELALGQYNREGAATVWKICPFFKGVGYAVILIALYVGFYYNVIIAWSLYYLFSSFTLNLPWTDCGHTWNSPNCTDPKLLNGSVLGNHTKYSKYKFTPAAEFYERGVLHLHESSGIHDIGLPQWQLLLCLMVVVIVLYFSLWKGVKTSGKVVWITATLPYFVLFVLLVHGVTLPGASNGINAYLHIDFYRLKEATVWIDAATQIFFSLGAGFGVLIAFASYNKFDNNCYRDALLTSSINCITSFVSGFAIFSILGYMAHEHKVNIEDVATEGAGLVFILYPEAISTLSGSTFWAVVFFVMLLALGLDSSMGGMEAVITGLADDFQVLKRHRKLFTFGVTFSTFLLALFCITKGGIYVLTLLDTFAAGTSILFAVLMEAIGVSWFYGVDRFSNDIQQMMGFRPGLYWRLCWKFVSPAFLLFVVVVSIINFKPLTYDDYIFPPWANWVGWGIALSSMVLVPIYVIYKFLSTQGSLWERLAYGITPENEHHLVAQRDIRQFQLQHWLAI
5-hydroxytryptamine receptor 2A (Homo sapiens), sequence (P28223 whole entry): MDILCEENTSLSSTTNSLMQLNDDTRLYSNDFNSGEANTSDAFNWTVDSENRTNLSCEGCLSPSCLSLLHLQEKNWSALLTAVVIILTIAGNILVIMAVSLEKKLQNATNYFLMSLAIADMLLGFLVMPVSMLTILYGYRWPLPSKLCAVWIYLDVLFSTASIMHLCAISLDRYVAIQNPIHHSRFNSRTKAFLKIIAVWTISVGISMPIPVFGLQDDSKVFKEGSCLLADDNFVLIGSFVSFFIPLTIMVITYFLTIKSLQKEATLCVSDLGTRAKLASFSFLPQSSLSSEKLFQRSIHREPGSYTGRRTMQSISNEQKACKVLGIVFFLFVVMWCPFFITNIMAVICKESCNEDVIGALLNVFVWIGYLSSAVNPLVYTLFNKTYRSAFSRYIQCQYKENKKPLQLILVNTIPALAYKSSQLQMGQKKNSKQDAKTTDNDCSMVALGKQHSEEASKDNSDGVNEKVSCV

hepatic extraction ratio at 1 µM (in vitro [1]): 0.56
hepatic extraction ratio at 1 µM (in vitro [2]): 0.48
solubility at 24 h (physchem [3]): < 1 µg/mL
Papp A→B at 1.5 h, 10 µM (in vitro [4]): 44 ×10⁻⁶ cm/s
pIC50 (Autotaxin [5]): 8.72
solubility at 24 h (physchem [6]): < 1 µg/mL
pIC50 (Autotaxin [7]): 7.03
solubility at 24 h (physchem [8]): < 1 µg/mL
Compound: N#Cc1cc(COC(=O)N2C[C@@H]3[C@@H](CNC(=O)c4ccc5[nH]c(=O)oc5c4)[C@@H]3C2)cc(OC(F)(F)F)c1
pIC50 [9]: < 5.00

Compound: N#Cc1cc(COC(=O)N2C[C@@H]3[C@@H](CNC(=O)NCCCc4cnn[nH]4)[C@@H]3C2)cc(C(=O)OC(F)(F)F)c1
pIC50 (Autotaxin [5]): 8.26
pIC50 (Autotaxin [7]): 7.19

hepatic extraction ratio at 1 µM (in vitro [1]): > 0.22
solubility at 24 h (physchem [3]): < 1 µg/mL
Papp A→B at 1.5 h, 10 µM (in vitro [4]): 64 ×10⁻⁶ cm/s
pIC50 (Autotaxin [5]): 8.32
solubility at 24 h (physchem [6]): < 1 µg/mL
pIC50 (Autotaxin [7]): 5.62
solubility at 24 h (physchem [8]): < 1 µg/mL
Compound: O=C(NC[C@@H]1[C@H]2CN(C(=O)C3CC3c3cc(Cl)cc(Cl)c3)C[C@@H]12)c1ccc2[nH]c(=O)oc2c1 (stereo partly drawn)
pIC50 [9]: 5.33

hepatic extraction ratio at 1 µM (in vitro [1]): 0.53
solubility at 24 h (physchem [3]): < 1 µg/mL
Papp A→B at 1.5 h, 10 µM (in vitro [4]): 47 ×10⁻⁶ cm/s
pIC50 (Autotaxin [5]): 7.08
solubility at 24 h (physchem [6]): < 1 µg/mL
solubility at 24 h (physchem [8]): < 1 µg/mL
Compound: O=C(NC[C@@H]1[C@H]2CN(C(=O)N3CCc4c(Cl)cc(Cl)cc4C3)C[C@@H]12)c1ccc2[nH]c(=O)oc2c1

solubility at 24 h (physchem [3]): < 1 µg/mL
Papp A→B at 1.5 h, 10 µM (in vitro [4]): 108 ×10⁻⁶ cm/s
pIC50 (Autotaxin [5]): 8.64
solubility at 24 h (physchem [6]): < 1 µg/mL
pIC50 (Autotaxin [7]): 8.35
solubility at 24 h (physchem [8]): < 1 µg/mL
Compound: O=C(NC[C@@H]1[C@H]2CN(C(=O)OCc3cc(C(F)(F)F)cc(C(F)(F)F)c3)C[C@@H]12)c1ccc2[nH]c(=O)oc2c1

inhibition at 10 µM (L-type calcium channel): 80%
half-life [11]: 204 min
half-life [12]: 108 min
solubility at 24 h (physchem [3]): < 1 µg/mL
Papp A→B at 1.5 h, 10 µM (in vitro [4]): 9 ×10⁻⁶ cm/s
pIC50 (Autotaxin [5]): 8.47
inhibition [13]: 55%
fraction unbound [14]: < 0.002
AUC/dose (Rattus norvegicus [15]): 2320 nM·h
Tmax [16]: 1.7 h
Vd [17]: 0.9 L/kg
solubility at 24 h (physchem [6]): < 1 µg/mL
pIC50 (Autotaxin [7]): 7.02
pIC50 (Rattus norvegicus [19]): 7.00
solubility at 24 h (physchem [8]): < 1 µg/mL
bioavailability [20]: 30%
fraction unbound [22]: < 0.002
AUC/dose (Rattus norvegicus [23]): 675 nM·h
inhibition [25]: 61%
inhibition (Homo sapiens): 66%
Cmax/dose (Rattus norvegicus [27]): 149 nM
CL (Rattus norvegicus [28]): 10%
Compound: O=C(NC[C@@H]1[C@H]2CN(C(=O)OCc3cc(C(F)(F)F)cc(C(F)(F)F)c3)C[C@@H]12)c1ccc2[nH]nnc2c1 [BI 2545]
inhibition (INH) (Rattus norvegicus [10]): <=90%
inhibition (INH) (Rattus norvegicus [18]): <=90%
inhibition (INH) (Rattus norvegicus [21]): <=90%
inhibition (INH) (Rattus norvegicus [24]): <=90%
pIC50 [9]: < 5.00
inhibition (INH) (Rattus norvegicus [26]): <=90%

hepatic extraction ratio at 1 µM (in vitro [1]): 0.43
hepatic extraction ratio at 1 µM (in vitro [2]): 0.44
solubility at 24 h (physchem [3]): 5 µg/mL (≈ 9.37 µM)
Papp A→B at 1.5 h, 10 µM (in vitro [4]): 7 ×10⁻⁶ cm/s
pIC50 (Autotaxin [5]): 8.89
solubility at 24 h (physchem [6]): 26 µg/mL (≈ 48.7 µM)
pIC50 (Autotaxin [7]): 7.48
solubility at 24 h (physchem [8]): 32 µg/mL (≈ 60 µM)
Compound: N#Cc1cc(COC(=O)N2C[C@@H]3[C@@H](CNC(=O)N4CCc5[nH]nnc5C4)[C@@H]3C2)cc(C(=O)OC(F)(F)F)c1
pIC50 [9]: < 5.00

solubility at 24 h (physchem [3]): < 1 µg/mL
Papp A→B at 1.5 h, 10 µM (in vitro [4]): 118 ×10⁻⁶ cm/s
pIC50 (Autotaxin [5]): 7.17
solubility at 24 h (physchem [6]): < 1 µg/mL
pIC50 (Autotaxin [7]): 6.68
solubility at 24 h (physchem [8]): < 1 µg/mL
Compound: CC(OC(=O)N1C[C@@H]2[C@@H](CNC(=O)c3ccc4[nH]c(=O)oc4c3)[C@@H]2C1)c1cc(Cl)cc(Cl)c1 (stereo partly drawn)

hepatic extraction ratio at 1 µM (in vitro [1]): 0.28
hepatic extraction ratio at 1 µM (in vitro [2]): 0.29
solubility at 24 h (physchem [3]): < 1 µg/mL
Papp A→B at 1.5 h, 10 µM (in vitro [4]): 8 ×10⁻⁶ cm/s
pIC50 (Autotaxin [5]): 8.82
solubility at 24 h (physchem [6]): < 1 µg/mL
pIC50 (Autotaxin [7]): 7.74
solubility at 24 h (physchem [8]): < 1 µg/mL
Compound: N#Cc1cc(COC(=O)N2C[C@@H]3[C@@H](CNC(=O)c4ccc5[nH]nnc5c4)[C@@H]3C2)cc(C(=O)OC(F)(F)F)c1
pIC50 [9]: < 5.00
